For this assay, the system named is HCT116, primary dendritic cells, JJ and FS. The assay is described as follows: Real-time PCR of PRAMEF1 in transduced HCT116, primary dendritic cells, JJ and FS cell lines. Type of assay: cell-based, human. The protocol: HCT116 cells were infected with a control lenti-GFP or with lenti-DUX4-fl and the abundance of PRAMEF1 mRNA measured relative to a constitutively expressed gene, RPL13a.
Primary dendritic cells and the tumor cell lines derived from patients with chondrosarcomas designated JJ and FS (described in Jagasia, et al., 1996, supra) were transduced with lentiviral constructs expressing a control gene, green fluorescent protein (GFP), or DUX4fl. PRAMEF1 mRNA was measured by real-time PCR relative to a constitutively expressed control, RPL13a.

For the substance “DUX4-fl: full-length DUX4 protein (SEQ ID NO:110), expressed from lentiviral or pCS2 vectors or in vitro translated”, the PRAMEF1 gene expression entry is listed as “robust activation of the PRAMEF1 gene”.

Values taken from patent US20140242093A1, “METHODS AND COMPOSITIONS FOR MODULATING THE INNATE IMMUNE RESPONSE AND/OR MYOGENESIS IN A MAMMALIAN SUBJECT” (FRED HUTCHINSON CANCER RESEARCH CENTER, priority 2011, published 2014).
